Laboratory results as given in US11459324B2, “O-glycoprotein-2-acetamido-2-deoxy-3-D-glycopyranosidase inhibitors” (BIOGEN MA INC., priority 2018, dated 2022).

Each compound was assayed against T1, Recombinant full length human OGA enzyme (Homo sapiens, UniProt O60502) (assay: OGA Enzyme Inhibition Biochemical Assay). Details: 1 nM OGA, 100 μM 4-MUGlcNAc (Km), pH 6.4, 90 minutes at room temperature, 10-point dose-response from 20 μM.
T1 construct: Recombinant full length human OGA enzyme was purchased from Origene; purchased Origene
T1 sequence (O60502 1-916): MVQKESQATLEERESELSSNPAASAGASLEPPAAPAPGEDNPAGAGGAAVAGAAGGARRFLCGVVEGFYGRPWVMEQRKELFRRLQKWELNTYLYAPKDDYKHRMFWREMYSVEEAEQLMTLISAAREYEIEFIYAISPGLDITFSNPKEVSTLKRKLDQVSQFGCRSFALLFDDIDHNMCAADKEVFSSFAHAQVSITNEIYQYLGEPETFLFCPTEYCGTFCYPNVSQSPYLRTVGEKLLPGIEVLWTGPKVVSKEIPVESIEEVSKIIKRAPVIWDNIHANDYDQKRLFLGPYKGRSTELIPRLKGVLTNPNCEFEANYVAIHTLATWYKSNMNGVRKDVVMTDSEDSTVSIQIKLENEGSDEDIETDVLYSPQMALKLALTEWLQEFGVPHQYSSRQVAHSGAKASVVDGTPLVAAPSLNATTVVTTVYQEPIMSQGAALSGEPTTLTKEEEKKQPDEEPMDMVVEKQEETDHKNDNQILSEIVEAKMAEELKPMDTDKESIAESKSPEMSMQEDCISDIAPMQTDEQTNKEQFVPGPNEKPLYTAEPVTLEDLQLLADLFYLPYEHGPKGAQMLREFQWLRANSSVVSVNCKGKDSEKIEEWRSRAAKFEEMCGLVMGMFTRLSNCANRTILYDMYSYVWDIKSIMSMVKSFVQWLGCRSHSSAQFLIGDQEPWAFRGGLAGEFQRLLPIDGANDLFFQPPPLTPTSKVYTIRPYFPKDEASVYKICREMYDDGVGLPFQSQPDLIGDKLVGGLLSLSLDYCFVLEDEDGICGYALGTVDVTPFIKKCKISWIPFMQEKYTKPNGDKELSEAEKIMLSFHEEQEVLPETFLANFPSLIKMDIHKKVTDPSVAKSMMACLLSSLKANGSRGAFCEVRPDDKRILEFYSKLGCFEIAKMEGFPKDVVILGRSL
Summary of the method: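 Full-length human OGA at 1 nM with 100 μM 4-MUGlcNAc (Km) in McIlvaine buffer pH 6.4 plus 0.01% BSA, 90 min at room temperature, then glycine pH 10 quench. Fluorescence read at Ex 355/Em 460 nm. 10-point, 4-fold dose-response from 20 μM, 4-parameter variable-slope fit.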

Row | SMILES | IC50 [nM]
1 | CC(=O)Nc1ncc(CN2CC[C@H](C)[C@H](Cc3ncc(F)cn3)C2)s1 (single isomer, unassigned) [Example 2-39] | 1
2 | CC(=O)Nc1ncc(CN2CCC[C@@H]([C@H](C)c3ncc(F)cn3)C2)s1 (single isomer, unassigned) [Example 2-30] | 32
3 | COc1cc(CC2CCN(Cc3cnc(NC(C)=O)s3)C2)ccn1 (stereo not drawn) [Example 1-19, N-(5-((3-((2-methoxypyridin-4-yl)methyl)pyrrolidin-1-yl)methyl)thiazol-2-yl)acetamide] | 10
4 | CC(=O)Nc1ncc(CN2C[C@@H](Cc3ncc(F)cn3)CC[C@H]2C)s1 (single isomer, unassigned) [Example 2-24] | 1100
5 | COc1cccc(CC2CCN(Cc3cnc(NC(C)=O)s3)C2)n1 (stereo not drawn) [Example 1-18, N-(5-((3-((6-methoxypyridin-2-yl)methyl)pyrrolidin-1-yl)methyl)thiazol-2-yl)acetamide] | 17
6 | CC(=O)Nc1ncc(CN2CC(Cc3ncc(F)cn3)CC2C)s1 (stereo not drawn) [Example 2-17, N-(5-((4-((5-fluoropyrimidin-2-yl)methyl)-2-methylpyrrolidin-1-yl)methyl)thiazol-2-yl)acetamide] | 2
7 | CC(=O)Nc1ncc(CN2CCCC(Cc3ccc(F)cc3)C2)s1 (stereo not drawn) [Example 1-1, N-(5-((3-(4-fluorobenzyl)piperidin-1-yl)methyl)thiazol-2-yl)acetamide] | 60
8 | CC(=O)Nc1ncc(CN2CCC[C@@H](Cc3ncc(F)cn3)C2)s1 [Example 2-33, N-[5-[[(3S)-3-[(5-fluoropyrimidin-2-yl)methyl]-1-piperidyl]methyl]thiazol-2-yl]acetamide] | 122
9 | COc1ccnc(CC2CCCN(Cc3cnc(NC(C)=O)s3)C2)c1 (stereo not drawn) [Example 1-9, N-(5-((3-((4-methoxypyridin-2-yl)methyl)piperidin-1-yl)methyl)thiazol-2-yl)acetamide] | 12
10 | CC(=O)Nc1ncc(CN2CCC[C@H](Cc3ccc(C(F)F)nc3)C2)s1 [Example 2-8, (R)-N-(5-((3-((6-(difluoromethyl)pyridin-3-yl)methyl)piperidin-1-yl)methyl)thiazol-2-yl)acetamide] | 18
11 | CC(=O)Nc1ncc(CN2CCCC(Cc3ccc(F)cn3)C2)s1 (stereo not drawn) [Example 2-5, N-(5-((3-((5-fluoropyridin-2-yl)methyl)piperidin-1-yl)methyl)thiazol-2-yl)acetamide] | 23
12 | CC(=O)Nc1ncc(CN2CCCC(Cc3nc(C)nc4ccsc34)C2)s1 (stereo not drawn) [Example 1-43, N-(5-((3-((2-methylthieno[3,2-d]pyrimidin-4-yl)methyl)piperidin-1-yl)methyl)thiazol-2-yl)acetamide] | 3
13 | CC(=O)Nc1ncc(CN2CC[C@@H](Cc3ncc(F)cn3)C2)s1 (single isomer, unassigned) [Example 2-2] | 114
14 | CC(=O)Nc1ncc(CN2CCC(Cc3cccc(F)c3)C2)s1 (stereo not drawn) [Example 1-16, N-(5-((3-(3-fluorobenzyl)pyrrolidin-1-yl)methyl)thiazol-2-yl)acetamide] | 270
15 | CC(=O)Nc1ncc(CN2C[C@H](Cc3ncc(F)cn3)CC[C@H]2C)s1 (single isomer, unassigned) [Example 2-27] | < 1
16 | CC(=O)Nc1ncc(CN2C[C@@H](Cc3ncc(F)cn3)C[C@H]2C)s1 (single isomer, unassigned) [Example 2-19] | 1
17 | CC(=O)Nc1ncc(CN2CC(Cc3ncc(F)cn3)CC[C@H]2C(F)(F)F)s1 (stereo partly drawn) [Example 2-49] | > 20000
18 | CC(=O)Nc1ncc(CN2CCCC(Cc3cc(C)ccn3)C2)s1 (stereo not drawn) [Example 1-45, N-(5-((3-((4-methylpyridin-2-yl)methyl)piperidin-1-yl)methyl)thiazol-2-yl)acetamide] | 24
19 | CC(=O)Nc1ncc(CN2C[C@@H](Cc3ncc(F)cn3)CC[C@@H]2C)s1 (single isomer, unassigned) [Example 2-26] | 990
20 | CC(=O)Nc1ncc(CN2CCCC(Cc3cncc(C(F)(F)F)c3)C2)s1 (stereo not drawn) [Example 1-30, N-(5-((3-((5-(trifluoromethyl)pyridin-3-yl)methyl)piperidin-1-yl)methyl)thiazol-2-yl)acetamide] | 30
21 | CC(=O)Nc1ncc(CN2CCCC(Cc3ccn(C)n3)C2)s1 (stereo not drawn) [Example 1-47, N-(5-((3-((1-methyl-1H-pyrazol-3-yl)methyl)piperidin-1-yl)methyl)thiazol-2-yl)acetamide] | 16

Next, values leading:

Row | IC50 [nM] | SMILES
22 | 5.1 | CC(=O)Nc1nc(F)c(CN2CC[C@H](Cc3cc(C)ncc3Cl)C2)s1 [Example 3-30, (S)—N-(5-((3-((5-chloro-2-methylpyridin-4-yl)methyl)pyrrolidin-1-yl)methyl)-4-fluorothiazol-2-yl)acetamide]
23 | 660 | CC(=O)Nc1ncc(CN2CCCC(Cn3cc(C4CCC4)cn3)C2)s1 (stereo not drawn) [Example 4-5, N-(5-((3-((4-cyclobutyl-1H-pyrazol-1-yl)methyl)piperidin-1-yl)methyl)thiazol-2-yl)acetamide]
24 | 14 | CC(=O)Nc1ncc(CN2CC[C@H](Cc3ncc(C)cn3)C2)s1 [Example 3-13, (R)-N-(5-((3-((5-methylpyrimidin-2-yl)methyl)pyrrolidin-1-yl)methyl)thiazol-2-yl)acetamide]
25 | 2 | CC(=O)Nc1ncc(CN2CCC[C@H](Cc3ncc(C(F)F)cn3)C2)s1 [Example 3-6, (R)-N-(5-((3-((5-(difluoromethyl)pyrimidin-2-yl)methyl)piperidin-1-yl)methyl)thiazol-2-yl)acetamide]
26 | < 1 | CC(=O)Nc1nc(F)c(CN2CCC[C@H](Cc3ccc(C)nc3)C2)s1 [Example 3-20, (R)-N-(4-fluoro-5-((3-((6-methylpyridin-3-yl)methyl)piperidin-1-yl)methyl)thiazol-2-yl)acetamide]
27 | 8 | COc1cc(C[C@@H]2CCN(Cc3sc(NC(C)=O)nc3F)C2)ncn1 [Example 3-34, (S)—N-(4-fluoro-5-((3-((6-methoxypyrimidin-4-yl)methyl)pyrrolidin-1-yl)methyl)thiazol-2-yl)acetamide]
28 | 150 | CC(=O)Nc1nc(Cl)c(CN2CC[C@H](Cc3cc(C)nc(C)c3)C2)s1 [Example 3-38, (S)—N-(4-chloro-5-((3-((2,6-dimethylpyridin-4-yl)methyl)pyrrolidin-1-yl)methyl)thiazol-2-yl)acetamide]
29 | 12 | CC(=O)Nc1nnc(CN2CCC[C@H](Cc3ncc(F)cn3)C2)s1 (stereo in doubt) [Example 3-14, N-(5-((3-((5-fluoropyrimidin-2-yl)methyl)piperidin-1-yl)methyl)-1,3,4-thiadiazol-2-yl)acetamide]
30 | 680 | CC(=O)Nc1ncc(CN2CCCC(Cn3nc(C)c(C)c3C)C2)s1 (stereo not drawn) [Example 4-4, N-(5-((3-((3,4,5-trimethyl-1H-pyrazol-1-yl)methyl)piperidin-1-yl)methyl)thiazol-2-yl)acetamide]
31 | 11 | CC(=O)Nc1ncc(CN2CC(F)CC(Cc3ncc(F)cn3)C2)s1 (stereo not drawn) [Example 3-2, N-(5-((3-fluoro-5-((5-fluoropyrimidin-2-yl)methyl)piperidin-1-yl)methyl)thiazol-2-yl)acetamide]
32 | 130 | CC(=O)Nc1nnc(CN2CC[C@H](Cc3cc(C)nc(C)c3)C2)s1 [Example 3-47, (S)—N-(5-((3-((2,6-dimethylpyridin-4-yl)methyl)pyrrolidin-1-yl)methyl)-1,3,4-thiadiazol-2-yl)acetamide]
33 | 1.9 | CC(=O)Nc1ncc(CN2C[C@@H](Cc3noc(C)n3)C[C@@H]2C)s1 [Example 4-13, N-(5-(((2S,4R)-2-methyl-4-((5-methyl-1,2,4-oxadiazol-3-yl)methyl)pyrrolidin-1-yl)methyl)thiazol-2-yl)acetamide]
34 | 1.3 | COc1cc(C[C@H]2CCCN(Cc3cnc(NC(C)=O)s3)C2)ncn1 [Example 3-23, (R)-N-(5-((3-((6-methoxypyrimidin-4-yl)methyl)piperidin-1-yl)methyl)thiazol-2-yl)acetamide]
35 | < 1 | COc1nc(C[C@H]2CCN(Cc3cnc(NC(C)=O)s3)C2)nc(C)c1F [Example 3-9, (R)-N-(5-((3-((5-fluoro-4-methoxy-6-methylpyrimidin-2-yl)methyl)pyrrolidin-1-yl)methyl)thiazol-2-yl)acetamide]
36 | 15 | CC(=O)Nc1ncc(CN2CCCC(Cn3cc(C(C)=O)cn3)C2)s1 (stereo not drawn) [Example 4-11, N-(5-((3-((4-acetyl-1H-pyrazol-1-yl)methyl)piperidin-1-yl)methyl)thiazol-2-yl)acetamide]
